Experiment [1] has as its target human Nav1.7 (Homo sapiens (Human), UniProt Q15858). In words: FLIPR sodium dye assay with KCl and test article pre-incubation, recombinant Nav1.7/HEK293 cells. It counts as cell-based. To be noted: Nav1.7, FLIPR assay.
Experiment [2] deals with hNav1.7 (Homo sapiens (Human), UniProt Q15858). Nature of the experiment: Electrophysiology (EP) whole-cell patch clamp assay, hNav1.7 expressing HEK-293 cells. Type of experiment: cell-based. The settings on record: for Ki: affinity for inactivated channels, read-out: Nav1.7 Activity EP assay Ki; for Kd: resting block dissociation constant, read-out: Nav1.7 Activity EP assay Kr. On the technique in general: In patch-clamp work, channel activity is measured electrically.
hNav1.7, sequence (Q15858 other isoform, or with tags, fused parts or gaps): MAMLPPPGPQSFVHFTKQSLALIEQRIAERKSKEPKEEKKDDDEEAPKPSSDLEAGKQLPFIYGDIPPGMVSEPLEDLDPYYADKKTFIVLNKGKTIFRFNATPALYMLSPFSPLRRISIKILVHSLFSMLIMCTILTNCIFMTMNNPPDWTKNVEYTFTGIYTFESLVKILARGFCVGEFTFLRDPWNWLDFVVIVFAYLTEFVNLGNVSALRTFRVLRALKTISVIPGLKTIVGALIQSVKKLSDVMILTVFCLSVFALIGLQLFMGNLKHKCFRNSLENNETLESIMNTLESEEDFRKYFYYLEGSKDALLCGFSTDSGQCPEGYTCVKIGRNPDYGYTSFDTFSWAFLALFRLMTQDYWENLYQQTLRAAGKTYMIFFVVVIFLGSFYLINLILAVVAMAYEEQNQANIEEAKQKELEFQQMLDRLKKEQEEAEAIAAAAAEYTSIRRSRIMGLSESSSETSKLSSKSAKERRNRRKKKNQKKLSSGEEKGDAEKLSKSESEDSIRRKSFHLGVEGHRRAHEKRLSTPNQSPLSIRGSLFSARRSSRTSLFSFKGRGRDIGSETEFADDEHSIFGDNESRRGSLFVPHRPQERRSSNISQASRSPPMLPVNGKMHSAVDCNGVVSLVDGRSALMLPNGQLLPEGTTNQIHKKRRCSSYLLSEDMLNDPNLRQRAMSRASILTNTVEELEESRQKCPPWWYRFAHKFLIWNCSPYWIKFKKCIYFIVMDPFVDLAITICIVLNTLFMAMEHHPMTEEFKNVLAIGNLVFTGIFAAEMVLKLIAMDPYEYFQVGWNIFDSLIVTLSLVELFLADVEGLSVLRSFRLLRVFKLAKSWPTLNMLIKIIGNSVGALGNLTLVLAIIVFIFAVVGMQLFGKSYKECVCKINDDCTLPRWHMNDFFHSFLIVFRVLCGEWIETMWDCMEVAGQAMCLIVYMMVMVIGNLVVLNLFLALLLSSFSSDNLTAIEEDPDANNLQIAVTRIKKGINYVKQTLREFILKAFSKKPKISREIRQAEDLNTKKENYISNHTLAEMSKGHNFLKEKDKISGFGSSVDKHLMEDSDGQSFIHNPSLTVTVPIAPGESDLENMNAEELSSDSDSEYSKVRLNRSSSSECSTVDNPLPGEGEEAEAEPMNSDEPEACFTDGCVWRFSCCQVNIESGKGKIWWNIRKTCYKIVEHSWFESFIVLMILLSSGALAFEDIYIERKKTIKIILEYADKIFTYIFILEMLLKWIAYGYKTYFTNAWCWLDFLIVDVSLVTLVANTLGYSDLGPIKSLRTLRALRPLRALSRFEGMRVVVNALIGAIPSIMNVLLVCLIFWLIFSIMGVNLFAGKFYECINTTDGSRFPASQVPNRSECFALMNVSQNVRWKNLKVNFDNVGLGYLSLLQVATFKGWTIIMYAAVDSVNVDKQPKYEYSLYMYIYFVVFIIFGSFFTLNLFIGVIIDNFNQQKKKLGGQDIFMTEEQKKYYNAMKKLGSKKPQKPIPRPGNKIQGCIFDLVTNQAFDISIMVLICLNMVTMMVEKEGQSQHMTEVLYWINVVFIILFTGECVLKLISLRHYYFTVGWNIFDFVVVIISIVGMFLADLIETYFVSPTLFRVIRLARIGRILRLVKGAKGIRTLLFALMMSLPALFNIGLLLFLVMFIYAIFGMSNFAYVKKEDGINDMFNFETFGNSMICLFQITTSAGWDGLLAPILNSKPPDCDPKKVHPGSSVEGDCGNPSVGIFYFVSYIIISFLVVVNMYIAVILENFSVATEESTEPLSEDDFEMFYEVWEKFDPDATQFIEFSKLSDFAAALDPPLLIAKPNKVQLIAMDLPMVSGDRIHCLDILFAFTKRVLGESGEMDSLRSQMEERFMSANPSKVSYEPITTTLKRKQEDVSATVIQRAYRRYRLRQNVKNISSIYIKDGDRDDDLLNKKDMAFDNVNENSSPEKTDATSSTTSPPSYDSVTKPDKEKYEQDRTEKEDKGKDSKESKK

human Nav1.7, sequence (Q15858 other isoform, or with tags, fused parts or gaps): as above

Turning to `COc1ncc(-c2ccccc2C2CCCN(C(=O)c3ccc(OCC(F)(F)F)cc3)C2)cn1` (stereo not drawn) [Compound 6, (3-(2-(2-methoxypyrimidin-5-yl)phenyl)piperidin-1-yl)(4-(2,2,2-trifluoroethoxy)phenyl) methanone], the IC50 (in general, the concentration that gives 50% inhibition) in experiment [1] turned out to be 209 ± 16 nM. Moreover, in experiment [2], the Ki stood at 511 ± 100 nM and the Kd worked out at 97900 ± 9300 nM. For the compound `O=C(c1ccc(OCC(F)(F)F)nc1)N1CCCC(c2ccccc2O)C1` (stereo not drawn) [Compound 7, (3-(2-hydroxyphenyl)piperidin-1-yl)(6-(2,2,2-trifluoroethoxy)pyridin-3-yl)methanone], the IC50 in experiment [1] amounted to 2570 ± 62 nM.

As to `O=C(c1ccc(OCC(F)(F)F)nc1)N1CCCC(c2ccccc2)C1` (stereo not drawn) [Compound 10, (3-phenylpiperidin-1-yl)(6-(2,2,2-trifluoroethoxy)pyridin-3-yl)methanone], the IC50 in experiment [1] was 1600 ± 105 nM.

Regarding `COc1ncc(-c2ccccc2C2CCCN(C(=O)c3ccc(OCC(F)(F)F)nc3)C2)cn1` (stereo not drawn) [Compound 13, (3-(2-(2-methoxypyrimidin-5-yl)phenyl)piperidin-1-yl)(6-(2,2,2-trifluoroethoxy)pyridin-3-yl)methanone], in experiment [1], the IC50 is 873 ± 27 nM. Further, in experiment [2], the Ki was determined as 2100 ± 384 nM and the Kd worked out at 115000 ± 22300 nM. With `O=C(c1ccc(OCC(F)(F)F)nc1)N1CCCC(c2ccccc2-c2ccc(F)nc2)C1` (stereo not drawn) [Compound 15, (3-(2-(6-fluoropyridin-3-yl)phenyl)piperidin-1-yl)(6-(2,2,2-trifluoroethoxy)pyridin-3-yl)methanone], in experiment [1], the IC50 came out at 954 ± 153 nM.

Turning to `CSc1ncc(-c2ccccc2C2CCCN(C(=O)c3ccc(OCC(F)(F)F)nc3)C2)cn1` (stereo not drawn) [Compound 16, (3-(2-(2-(methylthio)pyrimidin-5-yl)phenyl)piperidin-1-yl)(6-(2,2,2-trifluoroethoxy)pyridin-3-yl)methanone], the IC50 in experiment [1] came out at 676 ± 39 nM. As to `COc1ncccc1-c1ccccc1C1CCCN(C(=O)c2ccc(OCC(F)(F)F)nc2)C1` (stereo not drawn) [Compound 17, (3-(2-(2-methoxypyridin-3-yl)phenyl)piperidin-1-yl)(6-(2,2,2-trifluoroethoxy)pyridin-3-yl)methanone], the IC50 in experiment [1] stood at 691 ± 60 nM. The same measure, in the same setting: the figure for `CN(C)c1ncc(-c2ccccc2C2CCCN(C(=O)c3ccc(OCC(F)(F)F)nc3)C2)cn1` (stereo not drawn) [Compound 18, (3-(2-(2-(dimethylamino)pyrimidin-5-yl)phenyl)piperidin-1-yl)(6-(2,2,2-trifluoroethoxy)pyridin-3-yl)methanone] is 558 ± 31 nM.

`O=C(c1ccc(OCC(F)(F)F)nc1)N1CCCC(c2ccccc2-c2ccc(O)nc2)C1` (stereo not drawn) [Compound 19, (3-(2-(6-hydroxypyridin-3-yl)phenyl)piperidin-1-yl)(6-(2,2,2-trifluoroethoxy)pyridin-3-yl)methanone]: the IC50 in experiment [1] was found to be 5470 ± 220 nM. For `COc1ncc(-c2ccccc2C2CCCN(C(=O)c3cccnc3N)C2)cn1` (stereo not drawn) [Compound 28, (2-aminopyridin-3-yl)(3-(2-(2-methoxypyrimidin-5-yl)phenyl)piperidin-1-yl)methanone], the IC50 in experiment [1] came to 2570 ± 574 nM.

With `CN(C)c1ncc(-c2ccccc2C2CCCN(C(=S)Nc3ccc(C(F)(F)F)cc3)C2)cn1` (stereo not drawn) [Compound 29, 3-(2-(2-(dimethylamino)pyrimidin-5-yl)phenyl)-N-(4-(trifluoromethyl)phenyl)piperidine-1-carbothioamide], the IC50 in experiment [1] is greater than 20000 nM. As for `COc1ccc(NC(=S)N2CCCC(c3ccccc3-c3cnc(N(C)C)nc3)C2)cc1` (stereo not drawn) [Compound 30, 3-(2-(2-(dimethylamino)pyrimidin-5-yl)phenyl)-N-(4-methoxyphenyl)piperidine-1-carbothioamide], the IC50 in experiment [1] worked out at 2520 ± 753 nM. The same measure, in the same setting: the figure for `CN(C)c1ncc(-c2ccccc2C2CCCN(C(=O)Nc3ccc(OC(F)(F)F)cc3)C2)cn1` (stereo not drawn) [Compound 31, 3-(2-(2-(dimethylamino)pyrimidin-5-yl)phenyl)-N-(4-(trifluoromethoxy)phenyl)piperidine-1-carboxamide] is 941 ± 132 nM; for `COc1ccc(S(=O)(=O)N2CCCC(c3ccccc3-c3cnc(N(C)C)nc3)C2)cc1` (stereo not drawn) [Compound 32, 5-(2-(1-((4-methoxyphenyl)sulfonyl)piperidin-3-yl)phenyl)-N,N-dimethylpyrimidin-2-amine] it is 672 ± 118 nM; for `CN(C)c1ncc(-c2ccccc2C2CCCN(S(=O)(=O)c3ccc(OC(F)(F)F)cc3)C2)cn1` (stereo not drawn) [Compound 33, N,N-dimethyl-5-(2-(1-((4-(trifluoromethoxy)phenyl)sulfonyl)piperidin-3-yl)phenyl)pyrimidin-2-amine] it is 376 ± 29 nM. On the same count and under the same terms, the figure for `COc1ccc(C(=O)N2CCCC(c3ccccc3-c3cnc(N(C)C)nc3)C2)cc1[C@@H](O)CO` (stereo partly drawn) [Compound 34, (3-((R)-1,2-dihydroxyethyl)-4-methoxyphenyl)(3-(2-(2-(dimethylamino)pyrimidin-5-yl)phenyl)piperidin-1-yl)methanone] is greater than 20000 nM; for `COc1ccc(C(=O)N2CCCC(c3ccccc3-c3cnc(N(C)C)nc3)C2)cc1[C@H](O)CO` (stereo partly drawn) [Compound 35, (3-((S)-1,2-dihydroxyethyl)-4-methoxyphenyl)(3-(2-(2-(dimethylamino)pyrimidin-5-yl)phenyl)piperidin-1-yl)methanone] it is 10000 to 20000 nM; for `COc1ccc(C(=O)N2CCCC(c3ccccc3-c3cnc(N(C)C)nc3)C2)cc1` (stereo not drawn) [Compound 36, (3-(2-(2-(dimethylamino)pyrimidin-5-yl)phenyl)piperidin-1-yl)(4-methoxyphenyl)methanone] it is 384 ± 80 nM. In the case of `CN(C)c1ncc(-c2ccccc2C2CCCN(C(=O)c3cccc(C(N)=O)c3)C2)cn1` (stereo not drawn) [Compound 37, 3-(3-(2-(2-(dimethylamino)-pyrimidin-5-yl)phenyl)piperidine-1-carbonyl) benzamide], the IC50 in experiment [1] was greater than 20000 nM.

For the compound `CN(C)c1ncc(-c2ccccc2C2CCCN(C(=O)c3ccc(C(N)=O)cc3)C2)cn1` (stereo not drawn) [Compound 38, 4-(3-(2-(2-(dimethylamino)-pyrimidin-5-yl)phenyl)piperidine-1-carbonyl) benzamide], the IC50 in experiment [1] was greater than 20000 nM. Turning to `CN(C)c1ncc(-c2ccccc2C2CCCN(C(=O)c3ccc(OC(F)(F)F)cc3)C2)cn1` (stereo not drawn) [Compound 39, (3-(2-(2-(dimethylamino)pyrimidin-5-yl)phenyl)piperidin-1-yl)(4-(tri-fluoromethoxy)phenyl)methanone], the IC50 in experiment [1] worked out at 689 ± 35 nM.

For `CN(C)c1ncc(-c2ccccc2C2CCCN(C(=O)c3ccc(OCC(F)(F)F)cc3)C2)cn1` (stereo not drawn) [Compound 40, (3-(2-(2-(dimethylamino)pyrimidin-5-yl)phenyl)piperidin-1-yl)(4-(2,2,2-trifluoroethoxy)phenyl)methanone], the IC50 in experiment [1] amounted to 96 ± 6 nM. On the same count and under the same terms, next, `CN(C)c1ncc(-c2ccccc2C2CCCN(S(=O)(=O)Nc3ncns3)C2)cn1` (stereo not drawn) [Compound 43, 3-(2-(2-(dimethylamino)pyrimidin-5-yl)phenyl)-N-(1,2,4-thiadiazol-5-yl)piperidine-1-sulfonamide]: greater than 20000 nM.

These data come from patent US9359330B2, “Substituted piperidines as sodium channel blockers” (Purdue Pharma L.P., priority 2013, dated 2016).
